{
  "source": "patent US10577363B2",
  "about": "“Substituted piperidine compounds” (EPIZYME, INC., priority 2014, dated 2020)",
  "key": {"SMYD3 [1]": {"target": "T1, SMYD3 (Homo sapiens (Human), UniProt Q9H7B4)", "T1 sequence (Q9H7B4 whole entry)": "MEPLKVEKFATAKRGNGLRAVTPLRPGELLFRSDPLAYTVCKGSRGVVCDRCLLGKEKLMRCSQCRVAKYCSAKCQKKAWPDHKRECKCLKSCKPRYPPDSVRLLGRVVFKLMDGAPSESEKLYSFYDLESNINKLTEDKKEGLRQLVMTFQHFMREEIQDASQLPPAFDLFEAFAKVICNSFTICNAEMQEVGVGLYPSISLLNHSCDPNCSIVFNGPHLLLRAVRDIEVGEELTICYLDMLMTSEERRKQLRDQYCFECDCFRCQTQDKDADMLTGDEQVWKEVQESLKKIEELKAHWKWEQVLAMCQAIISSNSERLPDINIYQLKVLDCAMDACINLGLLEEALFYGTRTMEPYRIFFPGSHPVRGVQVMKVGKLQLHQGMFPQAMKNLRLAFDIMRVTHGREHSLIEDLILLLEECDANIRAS", "assay": "SMYD3 cell assay (Trimethyl-MEKK2 In-Cell Western in 293T/17 cells)", "assay_type": "cell-based", "method_in_brief": "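In-Cell Western ratio of trimethyl-Lys260 MEKK2 to anti-flag signal; percent inhibition from DMSO and maximum-inhibition controls, IC50 by non-linear regression, triplicates.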"}, "SMYD3 [2]": {"target": "T1, SMYD3", "assay": "SMYD3 biochemical assay (SPA, 3H-SAM methylation of MEKK2 protein substrate)", "method_in_brief": "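Tritium incorporation into GST-MEKK2 is counted by scintillation proximity after citric acid bead capture. Native human SMYD3 is preincubated with test compound for 30 min at room temperature at pH 8.0 (Tris-Cl, TCEP, BSG, Tween 20) before 3H-SAM and substrate are added; cold SAM at 100 uM final stops turnover.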"}, "[3]": {"details": "average of n = 1 to n = 50, read-out: SMYD3 Cell IC50"}, "[4]": {"details": "average of n = 1 to n = 50, read-out: SMYD3 Biochem IC50"}},
  "data": [
    {"smiles": "C[C@H]1C[C@@H](NC(=O)c2cc(C3CC3)on2)CCN1S(=O)(=O)N1CCN(C)[C@H](CCO)C1", "note": "[compound 759, 5-cyclopropyl-N-((2S,4S)-1-(((R)-3-(2-hydroxyethyl)-4-methylpiperazin-1-yl)sulfonyl)-2-methylpiperidin-4-yl)isoxazole-3-carboxamide]", "values": [
      {"measurement": "IC50", "setting": "SMYD3 [1]; [3]", "result": 2060, "unit": "nM"},
      {"measurement": "IC50", "setting": "SMYD3 [2]; [4]", "result": 733, "unit": "nM"}
    ]},
    {"smiles": "CC(=O)NCc1ccc(S(=O)(=O)N2CC[C@H](NC(=O)c3cc(C4CC4)on3)C[C@@H]2C)cc1", "note": "[compound 761, N-((2S,4S)-1-((4-(acetamidomethyl)phenyl)sulfonyl)-2-methylpiperidin-4-yl)-5-cyclopropylisoxazole-3-carboxamide]", "values": [
      {"measurement": "IC50", "setting": "SMYD3 [1]; [3]", "result": 2850, "unit": "nM"},
      {"measurement": "IC50", "setting": "SMYD3 [2]; [4]", "result": 751, "unit": "nM"}
    ]},
    {"smiles": "COCC1CCCN1CCS(=O)(=O)N1[C@@H]2CC[C@H]1C[C@@H](NC(=O)c1cc(C3CC3)on1)C2", "note": "(stereo partly drawn) [compound 762, 5-cyclopropyl-N-((1R,3r,5S)-8-((2-(2-(methoxymethyl)pyrrolidin-1-yl)ethyl)sulfonyl)-8-azabicyclo[3.2.1]octan-3-yl)isoxazole-3-carboxamide]", "values": [
      {"measurement": "IC50", "setting": "SMYD3 [1]; [3]", "result": 2070, "unit": "nM"},
      {"measurement": "IC50", "setting": "SMYD3 [2]; [4]", "result": 770, "unit": "nM"}
    ]},
    {"smiles": "C[C@@H]1C[C@H](NC(=O)c2cc(C3CC3)on2)CCN1C(=O)c1ccc(OCCN2CCNCC2)cc1", "note": "[compound 764, 5-cyclopropyl-N-((2R,4R)-2-methyl-1-(4-(2-(piperazin-1-yl)ethoxy)benzoyl)piperidin-4-yl)isoxazole-3-carboxamide]", "values": [
      {"measurement": "IC50", "setting": "SMYD3 [1]; [3]", "result": 9670, "unit": "nM"},
      {"measurement": "IC50", "setting": "SMYD3 [2]; [4]", "result": 806, "unit": "nM"}
    ]},
    {"smiles": "CCN1CCN(S(=O)(=O)N2[C@@H]3CCC[C@@H]2CC(NC(=O)c2cc(C4CC4)on2)C3)CC1", "note": "(stereo partly drawn) [compound 765, 5-cyclopropyl-N-((1R,5R)-9-((4-ethylpiperazin-1-yl)sulfonyl)-9-azabicyclo[3.3.1]nonan-3-yl)isoxazole-3-carboxamide]", "values": [
      {"measurement": "IC50", "setting": "SMYD3 [1]; [3]", "result": 2420, "unit": "nM"},
      {"measurement": "IC50", "setting": "SMYD3 [2]; [4]", "result": 836, "unit": "nM"}
    ]},
    {"smiles": "O=C(N[C@H]1C[C@H]2CC[C@@H](C1)N2S(=O)(=O)[C@H]1CC[C@@H](NCCO)CC1)c1cc(C2CC2)on1", "note": "[compound 767, 5-cyclopropyl-N-((1R,3R,5S)-8-(((1S,4S)-4-((2-hydroxyethyl)amino)cyclohexyl)sulfonyl)-8-azabicyclo[3.2.1]octan-3-yl)isoxazole-3-carboxamide]", "values": [
      {"measurement": "IC50", "setting": "SMYD3 [1]; read-out: SMYD3 Cell IC50*", "result": 19.4, "unit": "nM"},
      {"measurement": "IC50", "setting": "SMYD3 [2]; read-out: SMYD3 Biochem IC50*", "result": 0.4, "unit": "nM"}
    ]},
    {"smiles": "O=C(N[C@H]1C[C@H]2CC[C@@H](C1)N2S(=O)(=O)[C@H]1CC[C@H](NCCO)CC1)c1cc(C2CC2)on1", "note": "[compound 768, 5-cyclopropyl-N-((1R,3R,5S)-8-(((1R,4R)-4-((2-hydroxyethyl)amino)cyclohexyl)sulfonyl)-8-azabicyclo[3.2.1]octan-3-yl)isoxazole-3-carboxamide]", "values": [
      {"measurement": "IC50", "setting": "SMYD3 [1]; read-out: SMYD3 Cell IC50*", "result": 34.7, "unit": "nM"},
      {"measurement": "IC50", "setting": "SMYD3 [2]; read-out: SMYD3 Biochem IC50*", "result": 0.71, "unit": "nM"}
    ]},
    {"smiles": "O=C(N[C@H]1C[C@H]2CC[C@@H](C1)N2S(=O)(=O)N1CC2(CCN(CCc3ccccc3)CC2)C1)c1cc(C2CC2)on1", "note": "[compound 769, 5-cyclopropyl-N-((1R,3r,5S)-8-((7-phenethyl-2,7-diazaspiro[3.5]nonan-2-yl)sulfonyl)-8-azabicyclo[3.2.1]octan-3-yl)isoxazole-3-carboxamide]", "values": [
      {"measurement": "IC50", "setting": "SMYD3 [1]; read-out: SMYD3 Cell IC50*", "result": 17.9, "unit": "nM"},
      {"measurement": "IC50", "setting": "SMYD3 [2]; read-out: SMYD3 Biochem IC50*", "result": 0.76, "unit": "nM"}
    ]},
    {"smiles": "CN(C)[C@H]1CC[C@@H](S(=O)(=O)N2[C@@H]3CC[C@H]2C[C@@H](NC(=O)c2cc(C4CC4)on2)C3)CC1", "note": "[compound 771, 5-cyclopropyl-N-((1R,3R,5S)-8-(((1s,4S)-4-(dimethylamino)cyclohexyl)sulfonyl)-8-azabicyclo[3.2.1]octan-3-yl)isoxazole-3-carboxamide]", "values": [
      {"measurement": "IC50", "setting": "SMYD3 [1]; read-out: SMYD3 Cell IC50*", "result": 25.6, "unit": "nM"},
      {"measurement": "IC50", "setting": "SMYD3 [2]; read-out: SMYD3 Biochem IC50*", "result": 0.94, "unit": "nM"}
    ]},
    {"smiles": "C[C@H]1C[C@@H](NC(=O)c2cc(C3CC3)on2)CCN1S(=O)(=O)C[C@H]1CC[C@H](N)C1", "note": "[compound 772, N-((2S,4S)-1-((((1S,3S)-3-aminocyclopentyl)methyl)sulfonyl)-2-methylpiperidin-4-yl)-5-cyclopropylisoxazole-3-carboxamide]", "values": [
      {"measurement": "IC50", "setting": "SMYD3 [1]; read-out: SMYD3 Cell IC50*", "result": 32.7, "unit": "nM"},
      {"measurement": "IC50", "setting": "SMYD3 [2]; read-out: SMYD3 Biochem IC50*", "result": 0.95, "unit": "nM"}
    ]},
    {"smiles": "C[C@H]1C[C@@H](NC(=O)c2cc(C3CC3)on2)CCN1S(=O)(=O)[C@H]1CC[C@H](N)CC1", "note": "[compound 773, N-((2S,4S)-1-(((1r,4S)-4-aminocyclohexyl)sulfonyl)-2-methylpiperidin-4-yl)-5-cyclopropylisoxazole-3-carboxamide]", "values": [
      {"measurement": "IC50", "setting": "SMYD3 [1]; read-out: SMYD3 Cell IC50*", "result": 17.7, "unit": "nM"},
      {"measurement": "IC50", "setting": "SMYD3 [2]; read-out: SMYD3 Biochem IC50*", "result": 1.03, "unit": "nM"}
    ]},
    {"smiles": "C[C@H]1C[C@@H](NC(=O)c2cc(C3CC3)on2)CCN1S(=O)(=O)N1CCC(C)(N)CC1", "note": "[compound 774, N-((2S,4S)-1-((4-amino-4-methylpiperidin-l-yl)sulfonyl)-2-methylpiperidin-4-yl)-5-cyclopropylisoxazole-3-carboxamide]", "values": [
      {"measurement": "IC50", "setting": "SMYD3 [1]; read-out: SMYD3 Cell IC50*", "result": 25.6, "unit": "nM"},
      {"measurement": "IC50", "setting": "SMYD3 [2]; read-out: SMYD3 Biochem IC50*", "result": 1.04, "unit": "nM"}
    ]},
    {"smiles": "CC[C@@H]1C[C@H](NC(=O)c2cc(C3CC3)on2)CCN1S(=O)(=O)CC1CCN(C)CC1", "note": "[compound 775, 5-cyclopropyl-N-((2R,4R)-2-ethyl-1-(((1-methylpiperidin-4-yl)methyl)sulfonyl)piperidin-4-yl)isoxazole-3-carboxamide]", "values": [
      {"measurement": "IC50", "setting": "SMYD3 [1]; read-out: SMYD3 Cell IC50*", "result": 14.4, "unit": "nM"},
      {"measurement": "IC50", "setting": "SMYD3 [2]; read-out: SMYD3 Biochem IC50*", "result": 1.07, "unit": "nM"}
    ]},
    {"smiles": "O=C(N[C@H]1C[C@H]2CC[C@@H](C1)N2S(=O)(=O)[C@H]1CC[C@H](NCc2ccccc2)CC1)c1cc(C2CC2)on1", "note": "[compound 776, N-((1R,3R,5S)-8-(((1r,4R)-4-(benzylamino)cyclohexyl)sulfonyl)-8-azabicyclo[3.2.1]octan-3-yl)-5-cyclopropylisoxazole-3-carboxamide]", "values": [
      {"measurement": "IC50", "setting": "SMYD3 [1]; read-out: SMYD3 Cell IC50*", "result": 27.6, "unit": "nM"},
      {"measurement": "IC50", "setting": "SMYD3 [2]; read-out: SMYD3 Biochem IC50*", "result": 1.12, "unit": "nM"}
    ]},
    {"smiles": "CCC[C@@H]1C[C@H](NC(=O)c2cc(C3CC3)on2)CCN1S(=O)(=O)CC1CCN(C)CC1", "note": "[compound 777, 5-cyclopropyl-N-((2R,4R)-1-(((1-methylpiperidin-4-yl)methyl)sulfonyl)-2-propylpiperidin-4-yl)isoxazole-3-carboxamide]", "values": [
      {"measurement": "IC50", "setting": "SMYD3 [1]; read-out: SMYD3 Cell IC50*", "result": 17, "unit": "nM"},
      {"measurement": "IC50", "setting": "SMYD3 [2]; read-out: SMYD3 Biochem IC50*", "result": 1.14, "unit": "nM"}
    ]},
    {"smiles": "O=C(N[C@H]1C[C@H]2CC[C@@H](C1)N2S(=O)(=O)CC1CCN(Cc2ccc(F)cc2)CC1)c1cc(C2CC2)on1", "note": "[compound 778, 5-cyclopropyl-N-((1R,3r,5S)-8-(((1-(4-fluorobenzyl)piperidin-4-yl)methyl)sulfonyl)-8-azabicyclo[3.2.1]octan-3-yl)isoxazole-3-carboxamide]", "values": [
      {"measurement": "IC50", "setting": "SMYD3 [1]; read-out: SMYD3 Cell IC50*", "result": 44.8, "unit": "nM"},
      {"measurement": "IC50", "setting": "SMYD3 [2]; read-out: SMYD3 Biochem IC50*", "result": 1.18, "unit": "nM"}
    ]},
    {"smiles": "CCc1cc(C(=O)N[C@H]2C[C@H]3CC[C@@H](C2)N3S(=O)(=O)CC2CCN(CCCC(F)(F)F)CC2)no1", "note": "[compound 779, 5-ethyl-N-((1R,3r,5S)-8-(((1-(4,4,4-trifluorobutyl)piperidin-4-yl)methyl)sulfonyl)-8-azabicyclo[3.2.1]octan-3-yl)isoxazole-3-carboxamide]", "values": [
      {"measurement": "IC50", "setting": "SMYD3 [1]; read-out: SMYD3 Cell IC50*", "result": 28.1, "unit": "nM"},
      {"measurement": "IC50", "setting": "SMYD3 [2]; read-out: SMYD3 Biochem IC50*", "result": 1.2, "unit": "nM"}
    ]},
    {"smiles": "C[C@H]1C[C@@H](NC(=O)c2cc(C3CC3)on2)CCN1S(=O)(=O)N1CCC(N(C)CCO)CC1", "note": "[compound 780, 5-cyclopropyl-N-((2S,4S)-1-((4-((2-hydroxyethyl)(methyl)amino)piperidin-1-yl)sulfonyl)-2-methylpiperidin-4-yl)isoxazole-3-carboxamide]", "values": [
      {"measurement": "IC50", "setting": "SMYD3 [1]; read-out: SMYD3 Cell IC50*", "result": 23.9, "unit": "nM"},
      {"measurement": "IC50", "setting": "SMYD3 [2]; read-out: SMYD3 Biochem IC50*", "result": 1.21, "unit": "nM"}
    ]},
    {"smiles": "CCCN1CCC(CS(=O)(=O)N2[C@@H]3CC[C@H]2C[C@@H](NC(=O)c2cc(C4CC4)on2)C3)CC1", "note": "[compound 781, 5-cyclopropyl-N-((1R,3r,5S)-8-(((1-propylpiperidin-4-yl)methyl)sulfonyl)-8-azabicyclo[3.2.1]octan-3-yl)isoxazole-3-carboxamide]", "values": [
      {"measurement": "IC50", "setting": "SMYD3 [1]; read-out: SMYD3 Cell IC50*", "result": 27, "unit": "nM"},
      {"measurement": "IC50", "setting": "SMYD3 [2]; read-out: SMYD3 Biochem IC50*", "result": 1.22, "unit": "nM"}
    ]}
  ]
}
